Results: EP4700025A1, “AMIDE COMPOUND, PHARMACEUTICAL COMPOSITION COMPRISING SAME, AND USE THEREOF” (Suzhou Genhouse Bio Co., Ltd., priority 2023, dated 2024)

Assays:
SDMA [1] = test: SDMA Inhibition Assay in HCT-116 cells; format: cell-based; settings: Homo sapiens, HCT-116, 96 hours
Experimental: (§1) The next day, the cells were treated with the compounds at different concentrations (with an initial concentration of 10 µM, 5-fold dilution, 9 concentration gradients). After 96 hours, the culture medium was pipetted out and the cells were washed 2 times with 100 µL of PBS. The cells were then fixed with 4% paraformaldehyde and incubated at room temperature for 20 min. The fixative solution was discarded, and the cells were washed with PBS. 150 µL of specialized blocking solution (containing 1% Triton-100) was added to each well for blocking at room temperature for 2 hours, and the plate was washed with PBS to remove excess blocking solution. […] The cells were incubated at 4 °C overnight. The next day, the cells were separately washed 2 times with 1× PBST. […] The cells were incubated at room temperature for 2 hours. The cells were washed 2 times with 1× PBST and 1 time with PBS. Fluorescence signals at 700 nm and 800 nm were separately detected using a Li-COR Odyssey two-color near-infrared laser imager. The inhibition rates were calculated, and the EC50 values were determined by fitting using the GraphPad Prism 7.0 software. Table 3. Inhibition of SDMA by test compounds

HCT-116 = test: CCK8 proliferation inhibition, HCT-116; format: cell-based; settings: Homo sapiens, 192 h, CCK8, 8 days after drug treatment
Experimental: (§2) The above normally growing cells were digested with a cell trypsinization solution, centrifuged, counted, and seeded into a 96-well plate at an appropriate cell density (2000 cells/well) at 100 µL/well. The next day after cell seeding, the compounds at different concentrations were added to the wells. Three replicate wells were set for each concentration point, and a corresponding DMSO negative control group was also set. CCK8 solution was added to each well 8 days after drug treatment. The plate was incubated at 37 °C for a period of time (OD450 of the vehicle group reached 1.0 or higher) before the absorbance at 450 nm was read using a microplate reader. The inhibition rates were calculated, and the EC50 values were determined by fitting using the GraphPad Prism 7.0 software. Table 2. EC50 values of compounds at cellular level

SDMA [2] = test: SDMA Inhibition Assay in A549 cells; format: cell-based; settings: Homo sapiens, A549, 96 hours
Experimental: as §1

HCT-116-MTAP^-/- = test: CCK8 proliferation inhibition, HCT-116-MTAP^-/-; format: cell-based; settings: Homo sapiens, 192 h; HCT-116-MTAP^-/- (MTAP-deficient); CCK8, 8 days after drug treatment
Experimental: as §2

SDMA [3] = test: SDMA Inhibition Assay in HCT-116-MTAP^-/- cells; format: cell-based; settings: Homo sapiens, 96 hours
Experimental: as §1

A549 = test: CCK8 proliferation inhibition, A549; format: cell-based; settings: Homo sapiens, 192 h, CCK8, 8 days after drug treatment
Experimental: as §2

[4] = Pharmacokinetic assay in mice; format: in vivo, Balb/c mice; settings: plasma, mouse
Experimental: Eighteen male Balb/c mice aged 6 to 8 weeks were randomly divided into 2 groups (IV group and PO group). The corresponding compounds were administered to the animals in the IV group by tail intravenous injection at 2 mg/kg, and the corresponding compounds were administered to the animals in the PO group by oral gavage at 10 mg/kg or 100 mg/kg. The animals in the IV group were allowed free access to food and water, and the animals in the PO group were fasted overnight before administration and were fed 4 h after administration. Throughout the experiment, the animals were allowed free access to water. Plasma samples were separately collected at 0.083 h (only group IV), 0.25 h, 0.5 h, 1 h, 2 h, 4 h, 8 h, and 24 h after administration. About 100 µL of blood was collected from the orbit of the animal, placed into a 1.5 mL anticoagulation centrifuge tube, and centrifuged at 8000 rpm and 4 °C for 10 min. The upper plasma sample was transferred to an EP tube. The plasma samples were stored in a refrigerator at -80 °C until sample analysis. Pharmacokinetic parameters of the drug were calculated based on the drug concentration-time data, including the peak concentration Cmax, peak time Tmax, clearance rate CL, steady state apparent volume of distribution Vss, area under drug-time curve AUC, elimination half-life t1/2, bioavailability, and the like. Data below the 80% lower limit of quantification were excluded from the calculation of pharmacokinetic parameters.

Structure (SMILES) | EC50 (SDMA [1]) [nM] | EC50 (HCT-116) [nM] | EC50 (SDMA [2]) [nM] | EC50 (HCT-116-MTAP^-/-) [nM] | EC50 (SDMA [3]) [nM] | EC50 (A549) [nM] | AUC(0-t) ([4]; 2 mg/kg, IV 2mpk) [µM·h] | AUC(0-t) ([4]; 10 mg/kg, PO 10mpk) [µM·h] | Cmax ([4]; 10 mg/kg, PO 10mpk) [µM]
Cn1ncc2c(N)nc3ccc(C(=O)N(Cc4ccc5c(c4)OC(F)(F)O5)C4CC4)cc3c21 [Example I-15] | 628 | 5760 | 7.6 | 34 | 10.3 | – | – | – | –
CN(Cc1ccc2c(cnn2C)c1)C(=O)c1cc2c(cc1F)nc(N)c1cnn(C)c12 [Example I-18] | 1020 | 3440 | 3.1 | 18.3 | 3.1 | – | – | – | –
CN(Cc1ccc2cnn(C)c2c1)C(=O)c1cc2c(cc1F)nc(N)c1cnn(C)c12 [Example I-19] | 828 | > 10000 | 7.2 | 48.2 | 6.6 | – | – | – | –
CN(Cc1ccc2nn(C)cc2c1)C(=O)c1cc2c(cc1F)nc(N)c1cnn(C)c12 [Example I-20] | 862 | > 10000 | 9.2 | 16.1 | 5.5 | – | – | – | –
Cn1ncc2c(N)nc3cc(F)c(C(=O)N(CCN4CCOCC4)Cc4ccc5c(c4)OC(F)(F)O5)cc3c21 [Example I-21] | 292 | 2610 | 1.9 | 22 | 3 | – | – | – | –
COCCN(Cc1ccc2c(c1)OC(F)(F)O2)C(=O)c1cc2c(cc1F)nc(N)c1cnn(C)c12 [Example I-23] | – | – | 0.8 | 2.1 | 1.3 | 7.7 | – | – | –
COC[C@@H](C)N(Cc1ccc2c(c1)OC(F)(F)O2)C(=O)c1cc2c(cc1F)nc(N)c1cnn(C)c12 [Example I-24] | – | – | 1 | 3.2 | 1.7 | 8 | – | – | –
CN1CCN(CCN(Cc2ccc3c(c2)OC(F)(F)O3)C(=O)c2cc3c(cc2F)nc(N)c2cnn(C)c23)CC1 [Example I-31] | 1120 | 2710 | 6.7 | 35.8 | 8.7 | – | – | – | –
Nc1nc2cnc(C(=O)N3CCOC[C@@H]3c3ccc4c(c3)OC(F)(F)O4)cc2c2c1COC2 [Example I-109] | 938 | 4850 | 2.8 | 19.2 | 15 | – | 13.4 | 44.1 | 14.7
Cn1ncc2c(N)nc3cnc(C(=O)N4CC5(CC5)OCC4c4ccc5c(c4)OC(F)(F)O5)cc3c21 (stereo not shown) [Example I-110] | > 1000 | – | 19 | – | 36 | – | – | – | –
